Results reported in patent publication US9457063B2, “Method for treatment of diabetic vascular leakage-induced disease using C-peptide” (KANGWON NATIONAL UNIVERSITY UNIVERSITY-INDUSTRY COOPERATION …, priority 2012, dated 2016).
“And” between values parts separate entries of the source, which are not always exact repeats. Equal values may be shown once.

Experiments:
HUVECs [1] = assay: VEGF-induced intracellular ROS generation in HUVECs; format: cell-based, human; conditions: for VEGF-induced intracellular ROS generation: HUVECs pre-incubated 30 min with 1 mM NAC, 0.5 mM Trolox or 5 μM BAPTA-AM, 10 ng/ml VEGF 10 min
Experimental: HUVECs were isolated from the human umbilical cord vein according to a well known process, and cells from passages 3 to 6 were used in the following experiments. Cells were inoculated into M199 culture media (supplemented with 20% FBS, 3 ng/ml bFGF, 5 U/ml heparin, 100 U/ml penicillin, and 100 μg/ml streptomycin) in 2% gelatin-coated coverslips, dishes, or plates, and grown at 37° C. in a humidified 5% CO2 incubator.
For experiments, cells were incubated for 6 h in low-serum medium (M199 supplemented as above, but with only 1% FBS), and treated for a suitable time with 10 ng/ml VEGF in the presence or absence of various concentrations of C-peptide.
In detail, HUVECs inoculated into coverslips were treated with VEGF and C-peptide, and incubated with 10 μM 2′,7′-dichlorodihydrofluorescein diacetate (Molecular Probes, Eugene, Oreg.) in phenol red-free media for the last 10 min. The coverslips were mounted on a perfusion chamber, and labeled cells were rapidly scanned by confocal microscopy. The level of intracellular ROS was determined by comparing the fluorescence intensities of treated cells with those of control cells, and expressing this as a fold difference.

HUVECs [2] = assay: Intracellular Ca2+ levels in HUVECs (Fluo-4 AM); format: cell-based, human; conditions: HUVECs labeled with 1 μM Fluo-4 AM; for effect on VEGF-induced changes in intracellular Ca2+: n=3
Experimental: To monitor intracellular Ca^2+ levels, cells inoculated into coverslips were incubated with 1 μM Fluo-4 AM for 30 min. The coverslips were mounted on perfusion chambers and scanned every 10 sec by confocal microscopy (FV-300). Serial images from the scan were processed to analyze changes in intracellular Ca^2+ levels at the single-cell level. Data were expressed as the relative fluorescence intensity (RFI).

HUVECs [3] = assay: VEGF-induced stress fiber formation in HUVECs (rhodamine-phalloidin); format: cell-based, human; conditions: HUVECs 1 hr; 10 ng/ml VEGF with 0.5 nM C-peptide, 1 mM NAC or 0.5 mM Trolox; n=3
Experimental: HUVECs were grown on gelatin-coated round coverslips in 12-well culture plates, […], alone or in combination, or with 10 ng/ml VEGF in the presence of an ROS scavenger, that is, 1 mM NAC or 0.5 mM Trolox for 1 hr at 37° C. The cells were rapidly rinsed with PBS and fixed with 3.7% formaldehyde in PBS for 30 min. Then, the cells were permeabilized with 0.2% Triton X-100 in PBS for 30 min, and stained with rhodamine-palloidin (Molecular Probes) in PBS for 1 h. The resulting stained cells were mounted on a glass slide using a mounting solution, followed by visualizing actin filaments by confocal microscopy.

FIG. 6A = assay: FIG. 6A
Description: Table printed on a drawing sheet, FIG. 6A
Footnotes: Data are means ± S.D. / ***p<0.001 vs. control mice.
FIG. 6D is a graph in which serum C-peptide levels are plotted against time after intravitreal injection; and
First reader's note: Each column is a mouse group; the cells give mean ± S.D. of the serum C-peptide level.

[4] = Serum C-peptide levels during subcutaneous mini-osmotic pump delivery; format: in vivo; conditions: diabetic mice, 35 pmol/min/kg, n=7
Experimental: After implantation of a mini-osmotic pump for delivering C-peptide, blood c-peptide levels were measured. One group of diabetic mice (n=7) was subcutaneously implanted with ALZET® mini-osmotic pump 2004 (DURECT, Cupertino, Calif.) containing C-peptide in PBS with a delivery rate of 35 pmol/min/kg. The other diabetic (n=7) and control groups (n=7) underwent sham operations. During the continuous subcutaneous C-peptide perfusion, serum C-peptide levels were measured using a C-peptide Enzyme Immunoassay Kit (RayBiotech, Norcross, Ga.).

[5] = tested on: retinas of streptozotocin diabetic mice; assay: Retinal vascular leakage in streptozotocin diabetic mice (FITC-dextran fluorescein angiography); format: in vivo; conditions: for retinal microvascular leakage (extravasation of FITC-dextran) in diabetic mice: intravitreal injection, VEGF antibody 100 μg/ml, N-acetyl-cysteine 81.5 mg/ml, Trolox 125 μg/ml, 2 μl C-peptide, 24 hrs post-injection, n=6, p<0.01
Experimental: Diabetic mice were generated by a single intraperitoneal injection of streptozotocin (150 mg/kg body weight) freshly prepared in 100 mM citrate buffer (pH 4.5). All mice were supplied with 10% sucrose overnight. Sufficient hyperglycemia was observed 2 days post-injection, as measured by the ACCU-CHEK® Active blood glucose monitor (Roche Diagnostics, Germany). One week after the streptozotocin injection, mice with non-fasting blood glucose levels greater than 16 mM, polyuria, and glucosuria were defined as diabetic and used for the experiments.
The diabetic mice were intravitreally injected with 2 μl of C-peptide (3.7 μg/ml) in PBS into one eye, and an equal volume of PBS was injected into the contralateral eye (n=6 per group). Normal (non-diabetic) mice were also intravitreally injected with 2 μl of PBS into eyes (Normal; n=6 per group). C-peptide concentrations in the vitreous chamber were maintained within the physiological range (0.9 to 2.0 nM) for 12 hrs after intravitreal injection.
After 24 hrs post injection, retina leakage was quantified using fluorescein angiography. In this regard, mice were injected with 1.25 mg of 500-kDa FITC-dextran (Sigma-Aldrich) into the left ventricle and the dye was allowed to circulate for 5 min. Eyes were enucleated and immediately fixed with 4% paraformaldehyde for 45 min. Retinas were dissected, cut in the Maltese cross-configuration, and flat-mounted onto slide glass. Retinas were observed using the confocal microscope. Retina leakage was quantitatively analyzed by determining the intensities of extravasated FITC-dextran from whole retina tissues (n=6 per group) using the FV-300 software.
Diabetic mice were intravitreally injected with a monoclonal VEGF antibody (100 μg/ml), N-acetyl-cysteine (81.5 mg/ml), or Trolox (125 μg/ml) into one eye, and an equal volume of PBS was injected into the contralateral eye (n=6 per group). Twenty four hrs post-injection, retinal vascular leakage was quantified using fluorescein angiography. For the experiment, mice were injected with 1.25 mg of 500-kDa FITC-dextran (Sigma) into the left ventricle and the dye was allowed to circulate for 5 min. The eyes were enucleated and immediately fixed with 4% paraformaldehyde for 45 min. Retinas were dissected, cut in the Maltese cross-configuration, and flat-mounted onto slide glass before observation using confocal microscopy. Retinal vascular leakage was quantitatively analyzed by determining the intensities of extravasated FITC-dextran from whole retina tissues (n=6 per group) using confocal microscopy (FV-300, Olympus, Tokyo, Japan), and applying the intensity data to the FV-300 software.

HUVECs [6] = assay: VEGF-induced disassembly of VE-cadherin adherens junctions in HUVECs; format: cell-based, human; conditions: for VEGF-induced disassembly of VE-cadherin: HUVECs 90 min, 10 ng/ml VEGF with 0.5 nM C-peptide, 1 mM NAC or 0.5 mM Trolox, n=3
Experimental: Confluent cell layers (HUVECs) in 6-well plates were incubated with C-peptide or an ROS scavenger for 30 min, and then treated with VEGF for 90 min at 37° C. The treated cells were rinsed with PBS, and fixed with 3.7% formaldehyde in PBS for 30 min. The cells were permeabilized with 0.2% Triton X-100 in PBS for 30 min, and stained overnight at 4° C. with a monoclonal VE-cadherin antibody (Santa Cruz Biotechnology, Santa Cruz, Calif.) in PBS. Thereafter, the cells were probed with goat anti-mouse FITC (fluorescein isothiocyanate; Sigma, St. Louis, Mo.), followed by visualizing VE-cadherin by confocal microscopy.

[7] = tested on: microvessels of the diabetic mouse retina; assay: Disassembly of adherens junctions (VE-cadherin) in retina of diabetic mice; format: in vivo; conditions: intravitreal 2 μl C-peptide, n=3
Experimental: Diabetic mice were intravitreally injected with 2 μl C-peptide into one eye (Diabetic+C-Pep) and an equal volume of PBS into the contralateral eye (Diabetic, n=3). Normal (non-diabetic) mice also were intravitreally injected with 2 μl PBS into eyes (Normal, n=3).
VE-cadherin was stained in the retina and visualized using confocal microscopy as described below.
Microvessels were stained for VE-cadherin in retinal whole mounts. In detail, isolated retinas were fixed in 100% ethanol for 30 min, delipidated in 100% ice-cold acetone for 10 min, and permeabilized with 0.3% Triton X-100 for 1 hr. The retinas were incubated with an anti-VE-cadherin antibody (Enzo Life Sciences, Farmingdale, N.Y., USA) at 4° C. for 24 hrs, and probed with goat anti-mouse FITC (Sigma) at 4° C. for 24 hrs, followed by visualizing VE-cadherin by confocal microscopy (FV-300, Olympus).

[8] = C-peptide levels in the vitreous fluid after intravitreal injection; format: in vivo, mice; conditions: mouse, 7.5 ng, after intravitreal injection of 2 μl C-peptide (3.7 μg/ml), maintained for 12 hrs, physiological range, read-out: C-peptide concentrations in the vitreous chamber
Experimental: After intravitreal injection, C-peptide levels in the vitreous fluid were monitored with time. In this regard, C-peptide was intravitreally injected at a dose of 7.5 ng, after which C-peptide in the vitreous chamber was quantitated using a human C-peptide ELISA kit (Millipore Co. Billerica, Mass.) (n=4).

[9] = tested on: skin of streptozotocin diabetic mice; assay: Miles vascular permeability assay in skin of streptozotocin diabetic mice; format: in vivo
Experimental: A Miles vascular permeability assay was performed in diabetic mice as follows. After 2 to 3 days post-shaving, mice were anesthetized and intravenously injected with 150 μl of a 1% Evans blue solution. After 15 min, 15 μl of a VEGF (10 ng) solution containing 0, 7.5, or 15 ng of C-peptide was injected intradermally into the shaved skin of the mice (n=12 per group). PBS was injected for the control (n=12). An area of skin that included the blue spot resulting from leakage of the dye was dissected, and the Evans blue dye was eluted from the dissected skin by incubation with formamide at 56° C. for 2 days. The amount of dye was quantitated by spectrophotometry at 620 nm.

SMILES | VEGF-induced intracellular ROS generation (HUVECs [1]) | effect on VEGF-induced changes in intracellular Ca2+ (HUVECs [2]) | VEGF-induced stress fiber formation (HUVECs [3]) | concentration at which complete prevention of VEGF-induced ROS generation was observed (HUVECs [1]; HUVECs pre-treated 30 min, 10 ng/ml VEGF) | VEGF-induced generation of intracellular ROS (HUVECs [1]; HUVECs pre-treated with various concentrations of C-peptide 30 min, 10 ng/ml VEGF, dose-dependent) | Serum C-peptide (nM) (4 weeks after C-peptide delivery) (FIG. 6A) | Serum C-peptide (nM) (at 1 week of diabetes induction) (FIG. 6A) | serum C-peptide level [4] | extravasation of FITC-dextran (vascular leakage) in the retinas of diabetic mice ([5]; intravitreal 2 μl C-peptide (3.7 μg/ml), 24 hrs post injection, vs PBS contralateral eye, n=6, p<0.05) | retinal microvascular leakage (extravasation of FITC-dextran) in diabetic mice [5] | VEGF-induced disassembly of VE-cadherin (HUVECs [6]) | VEGF-induced decrease in the fluorescence intensity of the adherens junctions (HUVECs [6]; HUVECs, VE-cadherin histograms (RFI), FIG. 4B) | diabetes-induced disassembly of adherens junctions in retinal microvessels [7] | effect of substance alone on intracellular Ca2+ (HUVECs [2]; no VEGF) | level at time molar [8] | VEGF-induced vascular permeability (Evans blue leakage) in skin ([9]; intradermal VEGF (10 ng) with 7.5 or 15 ng C-peptide, dose-dependent, n=12, p<0.01) | vascular permeability with C-peptide alone ([9]; intradermal, no VEGF)
CC(=O)OCOC(=O)CN(CC(=O)OCOC(C)=O)c1ccccc1OCCOc1ccccc1N(CC(=O)OCOC(C)=O)CC(=O)OCOC(C)=O [BAPTA-AM, 1,2-bis(2-aminophenoxy)ethane-N,N,N-′,N′-tetraacetic acid tetrakis(acetoxymethyl ester), reference compound] | blocked | blocked | – | – | – | – | – | – | – | – | – | – | – | – | – | – | –
CC(C)C[C@H](NC(=O)[C@H](C)NC(=O)[C@H](CC(C)C)NC(=O)[C@@H]1CCCN1C(=O)[C@H](CCC(N)=O)NC(=O)[C@H](CC(C)C)NC(=O)[C@H](CO)NC(=O)CNC(=O)[C@H](C)NC(=O)CNC(=O)[C@@H]1CCCN1C(=O)CNC(=O)CNC(=O)CNC(=O)[C@H](CC(C)C)NC(=O)[C@H](CCC(=O)O)NC(=O)[C@@H](NC(=O)[C@H](CCC(N)=O)NC(=O)CNC(=O)[C@@H](NC(=O)[C@H](CCC(N)=O)NC(=O)[C@H](CC(C)C)NC(=O)[C@H](CC(=O)O)NC(=O)[C@H](CCC(=O)O)NC(=O)[C@H](C)NC(=O)[C@@H](N)CCC(=O)O)C(C)C)C(C)C)C(=O)N[C@@H](CCC(=O)O)C(=O)NCC(=O)N[C@@H](CO)C(=O)N[C@@H](CC(C)C)C(=O)N[C@@H](CCC(N)=O)C(=O)O [C-peptide] | – | had no effect | sufficiently suppressed | 0.5 nM | inhibited | 1.50 ± 0.89 nM and 2.40 ± 0.93 nM | 1.44 ± 0.53 nM | elevated to a normal value | blocked | blocked | inhibited | recovered | inhibited | did not increase | 0.9 to 2 nM | suppressed | did not cause a significant change
CC(=O)N[C@@H](CS)C(=O)O [NAC, N-acetyl-L-cysteine, reference compound] | abolished | – | inhibited | – | – | – | – | – | – | prevented | prevented | – | – | – | – | – | –
Cc1c(C)c2c(c(C)c1O)CCC(C)(C(=O)O)O2 (centres unmarked) [Trolox, reference compound] | abolished | – | inhibited | – | – | – | – | – | – | prevented | prevented | – | – | – | – | – | –
